Assays:
[1] = biological target: human full-length BTK Kinase (Homo sapiens (Human), UniProt Q06187); experiment: Human BTK LanthaScreen Assay (TR-FRET); type: biochemical; conditions: 50 μM ATP, 70 pM BTK, 100 nM FAM-Srctide; run with and without 60 minutes pre-incubation (table does not say which); read-out: BTK Inhibition IC50
[2] = biological target: human EGFR kinase domain (Homo sapiens (Human), UniProt P00533); experiment: Human EGFR LanthaScreen Selectivity Assay (TR-FRET); type: biochemical; conditions: 20 μM ATP, 600 pM EGFR kinase domain; run with and without 60 minutes pre-incubation
human EGFR kinase domain, sequence (P00533 712-979): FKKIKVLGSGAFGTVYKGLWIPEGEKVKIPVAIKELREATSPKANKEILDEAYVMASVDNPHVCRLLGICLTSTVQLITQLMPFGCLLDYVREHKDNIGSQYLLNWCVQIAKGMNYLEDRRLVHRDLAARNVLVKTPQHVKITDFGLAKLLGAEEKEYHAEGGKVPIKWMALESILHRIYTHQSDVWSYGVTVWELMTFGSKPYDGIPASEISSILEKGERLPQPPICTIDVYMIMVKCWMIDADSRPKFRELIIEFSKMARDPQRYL
Description: The kinase reaction mixtures were incubated at room temperature for 60 minutes before stopping the kinase activity by the addition of 15 mM EDTA. The extent of peptide phosphorylation by EGFR was detected using a Terbium-conjugated anti-phospho-Tyrosine antibody (Tb-PT66 antibody, Invitrogen # PV3557).

[3] = test system: Human B cells; experiment: Human Primary B Cell Proliferation Assay; type: cell-based; conditions: 50 μg/mL anti-human IgM F(ab')2 for 72 hours, 3H-thymidine incorporation
Description: Human B cells were purified from buffy coats using the human B cell RosetteSep kit per manufacturer's instructions. Purified cells were resuspended in RPMI-10% HIFCS, 2 mM L-glutamine, 100 U/mL penicillin, 100 μg/ml streptomycin, incubated with compounds for 1 hour at 37° C. and then stimulated with 50 μg/mL anti-human IgM F(ab′)2 for 72 hours. ^3H-thymidine was included in the culture media for the final 8-16 hours. Cells were harvested and ^3H-thymidine incorporation was measured.

human full-length BTK Kinase, sequence (Q06187 whole entry, the tested form may be a part): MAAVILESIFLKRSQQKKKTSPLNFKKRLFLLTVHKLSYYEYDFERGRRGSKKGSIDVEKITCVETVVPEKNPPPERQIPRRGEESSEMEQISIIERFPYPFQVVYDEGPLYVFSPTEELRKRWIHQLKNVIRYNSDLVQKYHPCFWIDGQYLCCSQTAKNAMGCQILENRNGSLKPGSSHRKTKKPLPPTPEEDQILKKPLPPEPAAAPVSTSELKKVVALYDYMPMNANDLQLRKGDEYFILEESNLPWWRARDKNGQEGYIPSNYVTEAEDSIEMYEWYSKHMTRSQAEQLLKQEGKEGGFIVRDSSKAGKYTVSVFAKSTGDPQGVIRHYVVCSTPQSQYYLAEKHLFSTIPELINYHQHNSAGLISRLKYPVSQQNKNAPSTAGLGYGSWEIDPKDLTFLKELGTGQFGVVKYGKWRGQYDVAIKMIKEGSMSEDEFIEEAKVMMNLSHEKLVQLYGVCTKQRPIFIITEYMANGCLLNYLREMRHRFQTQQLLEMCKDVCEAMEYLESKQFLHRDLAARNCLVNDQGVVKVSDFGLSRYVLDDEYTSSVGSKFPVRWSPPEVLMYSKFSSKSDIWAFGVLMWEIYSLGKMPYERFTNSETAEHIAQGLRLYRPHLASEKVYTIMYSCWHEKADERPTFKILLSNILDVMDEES

Work on `CC(C)(O)/C=C/C(=O)N1CCC[C@@H](n2nc(-c3ccc(Oc4ccc(F)cc4F)cc3)c(C(N)=O)c2N)C1` [Example 147, 5-amino-3-[4-(2,4-difluorophenoxy)phenyl]-1-{(3R)-1-[(2E)-4-hydroxy-4-methylpent-2-enoyl]piperidin-3-yl}-1H-pyrazole-4-carboxamide] yielded an IC50 [1] of 241 nM.

Molecule `NC(=O)c1c(-c2ccc(Oc3ccc(Cl)cc3)cc2)nn([C@@H]2CCCN(C(=O)/C=C/CF)C2)c1N` [Example 132, 5-amino-3-[4-(4-chlorophenoxy)phenyl]-1-{(3R)-1-[(2E)-4-fluorobut-2-enoyl]piperidin-3-yl}-1H-pyrazole-4-carboxamide] has an IC50 [1] of 1.1 nM.

`NC(=O)c1c(-c2ccc(Oc3ncc(Cl)cc3F)cc2)nn([C@@H]2CCCN(C(=O)/C=C/CO)C2)c1N` [Example 154, 5-amino-3-{4-[(5-chloro-3-fluoropyridin-2-yl)oxy]phenyl}-1-{(3R)-1-[(2E)-4-hydroxybut-2-enoyl]piperidin-3-yl}-1H-pyrazole-4-carboxamide] was tested, and the IC50 [1] was 49 nM.

`NC(=O)c1c(-c2ccc(Oc3ncc(Cl)cc3F)cc2)nn([C@@H]2CCCN(C(=O)/C=C/CF)C2)c1N` [Example 156, 5-amino-3-{4-[(5-chloro-3-fluoropyridin-2-yl)oxy]phenyl}-1-{(3R)-1-[(2E)-4-fluorobut-2-enoyl]piperidin-3-yl}-1H-pyrazole-4-carboxamide] gave an IC50 [2] of 381 nM and an IC50 [1] of 1.4 nM.

`NC(=O)c1c(-c2ccc(Oc3ncc(Cl)cc3F)cc2)nn([C@@H]2CCCN(C(=O)/C=C/C(F)F)C2)c1N` [Example 155, 5-amino-3-{4-[(5-chloro-3-fluoropyridin-2-yl)oxy]phenyl}-1-{(3R)-1-[(2E)-4,4-difluorobut-2-enoyl]piperidin-3-yl}-1H-pyrazole-4-carboxamide] was tested, and the IC50 [2] was 106 nM, the IC50 [3] was 2 nM and the IC50 [1] was 0.7 nM.

In the case of `NC(=O)c1c(-c2ccc(Oc3ccc(F)cc3F)cc2)nn([C@@H]2CCCN(C(=O)/C=C/CF)C2)c1N` [Example 145, 5-amino-3-[4-(2,4-difluorophenoxy)phenyl]-1-{(3R)-1-[(2E)-4-fluorobut-2-enoyl]piperidin-3-yl}-1H-pyrazole-4-carboxamide], the IC50 [2] is reported as 2180 nM and the IC50 [1] is reported as 2.8 nM.

Molecule `NC(=O)c1c(-c2ccc(Oc3ccc(Cl)cc3)cc2)nn([C@@H]2CCCN(C(=O)/C=C/CO)C2)c1N` [Example 131, 5-amino-3-[4-(4-chlorophenoxy)phenyl]-1-{(3R)-1-[(2E)-4-hydroxybut-2-enoyl]piperidin-3-yl}-1H-pyrazole-4-carboxamide] has an IC50 [2] of 2200 nM and an IC50 [1] of 2.3 nM.

`N#C/C=C/C(=O)N1CCC[C@@H](n2nc(-c3ccc(Oc4ccc(F)cc4F)cc3)c(C(N)=O)c2N)C1` [Example 152, 5-amino-1-{(3R)-1-[(2E)-3-cyanoprop-2-enoyl]piperidin-3-yl}-3-[4-(2,4-difluorophenoxy)phenyl]-1H-pyrazole-4-carboxamide] was tested, and the IC50 [1] was 1.5 nM.

Work on `C[C@@H](O)/C=C/C(=O)N1CCC[C@@H](n2nc(-c3ccc(Oc4ccc(F)cc4F)cc3)c(C(N)=O)c2N)C1` [Example 149, 5-amino-3-(4-(2,4-difluorophenoxy)phenyl)-1-((R)-1-((R,E)-4-hydroxypent-2-enoyl)piperidin-3-yl)-1H-pyrazole-4-carboxamide] yielded an IC50 [1] of 52 nM.

With `C[C@H](O)/C=C/C(=O)N1CCC[C@@H](n2nc(-c3ccc(Oc4ccc(F)cc4F)cc3)c(C(N)=O)c2N)C1` [Example 148, 5-amino-3-[4-(2,4-difluorophenoxy)phenyl]-1-{(3R)-1-[(2E,4S)-4-hydroxypent-2-enoyl]piperidin-3-yl}-1H-pyrazole-4-carboxamide] the IC50 [1] was 39 nM.

For `NC(=O)c1c(-c2ccc(Oc3ccc(F)cc3F)cc2)nn([C@@H]2CCCN(C(=O)/C=C/CO)C2)c1N` [Example 151, 5-amino-3-[4-(2,4-difluorophenoxy)phenyl]-1-{(3R)-1-[(2E)-4-hydroxybut-2-enoyl]-piperidin-3-yl}-1H-pyrazole-4-carboxamide], the IC50 [2] was 12100 nM and the IC50 [1] was 2.3 nM.

For `NC(=O)c1c(-c2ccc(Oc3ccc(F)cc3F)cc2)nn([C@@H]2CCCN(C(=O)/C(F)=C/CO)C2)c1N` [Example 146, 5-amino-3-[4-(2,4-difluorophenoxy)phenyl]-1-{(3R)-1-[(2Z)-2-fluoro-4-hydroxybut-2-enoyl]piperidin-3-yl}-1H-pyrazole-4-carboxamide], the IC50 [1] was 48 nM.
